The text below walks through data of US20200360318A1, “COMPOSITIONS AND METHODS FOR INCREASING THE POLLINATION PERFORMANCE OF BEES” (Beeflow Corporation, priority 2019, published 2020).

Molecules are shown by their SMILES.

The nature of the series: ABA content in fifth instar larvae of colonies fed ABA syrup. The class given is in vivo, honey bees. The note with it: 10 μM ABA in sucrose syrup (2:1); fifth instar larvae (L5), two months after starting treatment. The procedure:
ABA was added to sucrose syrup (2:1, sucrose:water) to achieve a concentration of 10 μM ABA. Two groups of small colonies of honey bees were used to test if the compound was reaching the bee larvae. One group of colonies was exposed to the solution by way of adding the solution to feed the bees in the beehive, while the other was not. In order to corroborate that the ABA supplemented in the syrup actually reached the larvae, the ABA content was measured in fifth instar larvae (L5) two months after starting treatment.

Take `CC1=CC(=O)CC(C)(C)[C@@]1(O)/C=C/C(C)=C\C(=O)O` [ABA, (2Z,4E)-5-[(1S)-1-hydroxy-2,6,6-trimethyl-4-oxocyclohex-2-en-1-yl]-3-methylpenta-2,4-dienoic acid]: the “concentration of ABA in larvae compared to the control colony” value is 28 x.
